The text below walks through data of patent EP0026672B1, “Immobilized lactase and its use in hydrolysing lactose” (SUMITOMO CHEMICAL COMPANY, LIMITED, priority 1979, dated 1981).

In experiment [1] the target is T1, lactase obtained from a strain of Aspergillus oryzae (extracellular enzyme, unimmobilized) (Aspergillus oryzae, UniProt Q2UCU3).
T1 construct: the lactase obtained from a strain of Aspergillus oryzae having; host or cells: Aspergillus oryzae (natural producer)
T1 sequence (Q2UCU3 19-1005): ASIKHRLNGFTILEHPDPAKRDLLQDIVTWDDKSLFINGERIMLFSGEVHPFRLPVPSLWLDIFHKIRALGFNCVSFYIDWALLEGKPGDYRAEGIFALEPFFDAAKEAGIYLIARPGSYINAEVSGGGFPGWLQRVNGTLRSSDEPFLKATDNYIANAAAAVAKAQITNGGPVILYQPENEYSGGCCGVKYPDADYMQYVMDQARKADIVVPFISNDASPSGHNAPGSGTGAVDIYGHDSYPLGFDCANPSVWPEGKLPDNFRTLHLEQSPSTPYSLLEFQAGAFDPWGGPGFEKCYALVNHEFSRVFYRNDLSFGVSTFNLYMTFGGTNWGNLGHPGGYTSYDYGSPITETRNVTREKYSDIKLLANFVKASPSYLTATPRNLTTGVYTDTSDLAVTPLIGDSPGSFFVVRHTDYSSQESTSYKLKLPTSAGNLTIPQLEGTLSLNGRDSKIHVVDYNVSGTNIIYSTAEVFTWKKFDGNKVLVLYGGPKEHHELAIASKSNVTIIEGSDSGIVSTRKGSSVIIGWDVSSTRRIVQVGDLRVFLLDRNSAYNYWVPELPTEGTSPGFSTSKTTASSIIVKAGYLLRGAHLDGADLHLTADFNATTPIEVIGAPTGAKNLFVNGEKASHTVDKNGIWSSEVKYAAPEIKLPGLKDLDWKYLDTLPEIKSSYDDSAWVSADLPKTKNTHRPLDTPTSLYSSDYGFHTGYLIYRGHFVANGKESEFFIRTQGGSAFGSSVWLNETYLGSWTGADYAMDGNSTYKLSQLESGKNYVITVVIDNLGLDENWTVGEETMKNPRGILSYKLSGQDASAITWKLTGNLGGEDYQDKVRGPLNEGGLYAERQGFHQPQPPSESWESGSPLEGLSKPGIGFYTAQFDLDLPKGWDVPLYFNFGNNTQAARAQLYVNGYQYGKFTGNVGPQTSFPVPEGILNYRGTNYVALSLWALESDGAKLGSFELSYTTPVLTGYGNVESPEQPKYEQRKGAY
Briefly: Km and Ki of the unimmobilized lactase, lactose hydrolysis. The experiment is classed as biochemical. The protocol:
Ki=7±4 mole/m^3 (0.007±0.004 molell) (pH 4.5, 30°C, substrate; lactose). It is believed that the characteristics of the lactase are well defined by the above data, and some other properties are given below:
In the present specification, 1 ILU is defined as the amount of lactase which produces 1 µ mole per minute of glucose at pH 4.5 at 30°C when a 13.3 w/v% of lactose solution is used as the substrate. The quantity of glucose thus prepared is defined by using glycose oxidase-peroxidase- dye system. When the measurement of the activity (unit) is carried out at a different pH or temperature, the pH or the temperature will specifically be given in each case.

The target of experiment [2] is T2, immobilized lactase: Aspergillus oryzae lactase covalently attached (glutaraldehyde) on macroporous amphoteric phenol-formaldehyde ion-exchange resin (Aspergillus oryzae, UniProt Q2UCU3).
T2 construct: the lactase originated from Aspergillus oryzae is immobilized on one of the carriers; host or cells: Aspergillus oryzae (natural producer)
The experiment can be described thus: Km and Ki of the immobilized lactase, general characteristics. The format is biochemical. The note with it: pH 4.5, 30°C, substrate; lactose; value in brackets. The protocol: The immobilized lactase (0.1 to 0.3 ml) is suspended in a 0.05M acetate buffer solution (pH 4.5). To this solution, a solution of lactose in the same kind of buffer solution as above is added to give a 13.3 w/v % lactose solution. The solution was shaken at 30°C for 15 minutes with a shaker (100 rpm, shaking width; 3.5 cm). After the removal of the immobilized lactase by filtration, the content of the glucose in the filtrate is determined using glucose oxidase, peroxidase and dye system. The amount of the enzyme which produces 1 p mole of glucose in one minute is defined as 1 unit (1 ILU). The pH level and the temperature of the measurement of the activity will be stated in each case in the specification.

For `OC[C@H]1OC(O)[C@H](O)[C@@H](O)[C@H]1O` (stereo partly shown) [galactose], the inhibition constant (Ki) in experiment [1] (read-out: Inhibition constant by galactose Ki, pH 4.5, 30°C, substrate, lactose, value in brackets) was found to be 7 ± 4 mM. Also, the “Inhibition constant by galactose Ki” value in experiment [2] turned out to be 150 ± 100 mM.

Consider `OC[C@H]1O[C@@H](O[C@H]2[C@H](O)[C@@H](O)C(O)O[C@@H]2CO)[C@H](O)[C@@H](O)[C@H]1O` (stereo partly shown) [lactose], for which, in experiment [1] (lactase dry powder of Example 3 (Shinnihon Kagaku Kogyo Co., 73 ILU/mg)), the Km value is recorded as 0.11 mole/I. Further, in experiment [2], the “Michaelis constant Km” value was 0.15±0.1 mole/I.

As a reminder, the Ki is the dissociation constant of the complex between target and ligand, obtained from inhibition or displacement.
